Laboratory results from US20080274883A1, “Fungicidal Mixtures” (BASF AKTIENGESELLSCHAFT, priority 2004, published 2008).

Experiments:
[1] = tested on: Phytophthora infestans; assay type: in vivo, Phytophthora infestans on potted tomato plants; conditions: 1 ppm; protective spray on tomato leaves, infested next day, rated after 6 days; efficiency by Abbot's formula vs untreated control (90% infestation)
[2] = tested on: Erysiphe [syn. Blumeria] graminis form a specialis. tritici; test: Efficacy against wheat mildew caused by Erysiphe [syn. Blumeria] graminis forma specialis tritici; assay type: in vivo; conditions: wheat seedlings sprayed, dusted with spores 24 hours later, rated after 7 days, untreated control 90% infestation

CO/C=C(/C(=O)OC)c1ccccc1CO/N=C(C)/C=C/c1ccc(Cl)cc1 [enestrobin (I), methyl 2-(2-[3-(4-chlorophenyl)-1-methyl-allylidenaminooxymethyl]phenyl)-3-methoxyacrylate]
Observed action (%) [1]: 0%
Observed action (%) ([2]; 16 ppm): 33%

COc1ccc(C(=CC(=O)N2CCOCC2)c2ccc(Cl)cc2)cc1OC [dimethomorph (II), 3-(4-chlorophenyl)-3-(3,4-dimethoxyphenyl)-1-morpholin-4-ylpropenone]
Observed action (%) [1]: 22%
Observed action (%) ([2]; 4 ppm): 0%

COc1ccc(C(=CC(=O)N2CCOCC2)c2ccc(F)cc2)cc1OC [flumorph (IIA), 4-[3-(3,4-dimethoxyphenyl)-3-(4-fluorophenyl)-1-oxo-2-propenyl]morpholine]
Observed action (%) ([2]; 4 ppm): 0%
